According to paper PMC3139892, “Effective Control of Postprandial Glucose Level through Inhibition of Intestinal Alpha Glucosidase by Cymbopogon martinii (Roxb.)” (Evidence-based Complementary and Alternative Medicine : eCAM, 2011):

Target: T1, intestinal alpha glucosidase (maltase activity)
T1 construct: gene Mgam; mixture of intestinal alpha-glucosidases
Assay: maltose hydrolysis, glucose by glucose oxidase (GOD-PAP)
Format: biochemical, Rattus norvegicus
Details: 25 mM maltose, 100 mM phosphate pH 7.2, 37°C, 30 min; mucosal enzyme preparation
From the text: maltose hydrolysis, glucose by glucose oxidase (GOD-PAP) on intestinal alpha glucosidase (maltase activity)

**Q.** How did the “Acarbose / IC50” value turn out when `C[C@H]1O[C@H](O[C@H]2[C@H](O)[C@@H](O)[C@@H](O[C@H]3[C@H](O)[C@@H](O)C(O)O[C@@H]3CO)O[C@@H]2CO)[C@H](O)[C@@H](O)[C@@H]1N[C@H]1C=C(CO)[C@@H](O)[C@H](O)[C@H]1O` (stereo partly shown) [acarbose] was run?
**A.** Its value is 60 µg/mL.
